Assay results: PubChem BioAssay (NCI)
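Values below derive from 48-hour exposures of cells grown in 96-well plates, with endpoints linearly interpolated between the two concentrations bracketing the appropriate inhibition level. Here, GI50 denotes the concentration required for 50% inhibition of growth. At the TGI there is no net growth.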

Columns and labels:
Test in all cases: DTP human tumour cell line panel, 48 h
[1] = tested on: OVCAR-3 ovarian
[2] = tested on: SF-539 CNS
[3] = tested on: U251 CNS
[4] = tested on: HT29 colon
[5] = tested on: OVCAR-5 ovarian
[6] = tested on: CCRF-CEM leukemia
[7] = tested on: SN12C renal
[8] = tested on: SF-295 CNS
[9] = tested on: SK-MEL-2 melanoma
[10] = tested on: BT-549 breast
[11] = tested on: UACC-62 melanoma
[12] = tested on: NCI-H460 lung
[13] = tested on: SK-MEL-28 melanoma
[14] = tested on: KM12 colon
[15] = tested on: ACHN renal
[16] = tested on: EKVX NSCLC
[17] = tested on: COLO 205 colon
[18] = tested on: PC-3 prostate
[19] = tested on: SNB-19 CNS
[20] = tested on: HCC-2998 colon
[21] = tested on: NCI-H23 lung
[22] = tested on: NCI/ADR-RES ovarian
[23] = tested on: HOP-62 NSCLC
[24] = tested on: MCF7 breast
[25] = tested on: HL-60(TB) leukemia
[26] = tested on: RXF 393 renal
[27] = tested on: A549 NSCLC
[28] = tested on: SR leukemia
[29] = tested on: MOLT-4 leukemia
[30] = tested on: NCI-H226 lung
[31] = tested on: M14 melanoma
[32] = tested on: SW-620 colon
[33] = tested on: CAKI-1 renal
[34] = tested on: A498 renal
[35] = tested on: MDA-MB-231 breast
[36] = tested on: LOX IMVI melanoma
[37] = tested on: OVCAR-4 ovarian
[38] = tested on: SF-268 CNS
[39] = tested on: DU-145 prostate
[40] = tested on: OVCAR-8 ovarian
[41] = tested on: TK-10 renal
[42] = tested on: SNB-75 CNS
[43] = tested on: MALME-3M melanoma
[44] = tested on: IGROV1 ovarian
[45] = tested on: T-47D breast
[46] = tested on: MDA-MB-435
[47] = tested on: HOP-92 NSCLC
[48] = tested on: HS 578T breast
[49] = tested on: UACC-257 melanoma
[50] = tested on: NCI-H522 lung
[51] = tested on: HCT-15 colon
[52] = tested on: UO-31 renal
[53] = tested on: K-562 leukemia
[54] = tested on: SK-OV-3 ovarian
[55] = tested on: HCT-116 colon
[56] = tested on: 786-0 renal
[57] = tested on: SK-MEL-5 melanoma

Question: Which results are given for `CC1(C)CC[C@]2(C(N)=O)CC[C@]3(C)C(=CC[C@@H]4[C@@]5(C)C/C(=C/c6cccnc6)C(=O)C(C)(C)[C@@H]5CC[C@]43C)[C@@H]2C1`?
Answer: GI50 [1]: 1.86 µM; TGI [1]: 3.53 µM; GI50 [2]: 1.97 µM; TGI [2]: 3.9 µM; GI50 [3]: 3.19 µM; TGI [3]: 11.2 µM; GI50 [4]: 2.1 µM; TGI [4]: 4.56 µM; GI50 [5]: 1.93 µM; TGI [5]: 4.16 µM; GI50 [6]: 2.54 µM; TGI [6]: 7.73 µM; GI50 [7]: 2.31 µM; TGI [7]: 5.24 µM; GI50 [8]: 3.16 µM; TGI [8]: 11.2 µM; GI50 [9]: 2.22 µM; TGI [9]: 4.99 µM; GI50 [10]: 2.61 µM; TGI [10]: 6.83 µM; GI50 [11]: 2.21 µM; TGI [11]: 5.13 µM; GI50 [12]: 2.2 µM; TGI [12]: 5.33 µM; GI50 [13]: 2.26 µM; TGI [13]: 4.71 µM; GI50 [14]: 2.28 µM; TGI [14]: 5.72 µM; GI50 [15]: 3.49 µM; TGI [15]: 13.6 µM; GI50 [16]: 3.44 µM; TGI [16]: > 100 µM; GI50 [17]: 1.86 µM; TGI [17]: 3.76 µM; GI50 [18]: 2.56 µM; TGI [18]: 13.4 µM; GI50 [19]: 4.03 µM; TGI [19]: 16.5 µM; GI50 [20]: 1.71 µM; TGI [20]: 3.34 µM; GI50 [21]: 3.31 µM; TGI [21]: > 100 µM; GI50 [22]: 2.71 µM; TGI [22]: 8.96 µM; GI50 [23]: 2.84 µM; TGI [23]: 10.1 µM; GI50 [24]: 2.71 µM; TGI [24]: 13.7 µM; GI50 [25]: 2.04 µM; TGI [25]: 4.55 µM; GI50 [26]: 1.67 µM; TGI [26]: 3.3 µM; GI50 [27]: 3.31 µM; TGI [27]: > 100 µM; GI50 [28]: 2.34 µM; TGI [28]: 7.14 µM; GI50 [29]: 2.01 µM; TGI [29]: 6.3 µM; GI50 [30]: 2.09 µM; TGI [30]: 5.78 µM; GI50 [31]: 3.38 µM; TGI [31]: 10.9 µM; GI50 [32]: 3 µM; TGI [32]: > 100 µM; GI50 [33]: 2.92 µM; TGI [33]: 13 µM; GI50 [34]: 2.06 µM; TGI [34]: 4.06 µM; GI50 [35]: 3.8 µM; TGI [35]: 22.3 µM; GI50 [36]: 1.71 µM; TGI [36]: 3.24 µM; GI50 [37]: 7.1 µM; TGI [37]: > 100 µM; GI50 [38]: 3.8 µM; TGI [38]: 18 µM; GI50 [39]: 3.52 µM; TGI [39]: 16.5 µM; GI50 [40]: 3.69 µM; TGI [40]: > 100 µM; GI50 [41]: 4.05 µM; TGI [41]: 30.2 µM; GI50 [42]: 9.92 µM; TGI [42]: > 100 µM; GI50 [43]: 1.9 µM; TGI [43]: 4.05 µM; GI50 [44]: 3.62 µM; TGI [44]: 73 µM; GI50 [45]: 2.66 µM; TGI [45]: 11.4 µM; GI50 [46]: 3.15 µM; TGI [46]: 11.2 µM; GI50 [47]: 2.66 µM; TGI [47]: 8.7 µM; GI50 [48]: 5.93 µM; TGI [48]: > 100 µM; GI50 [49]: 3.2 µM; TGI [49]: 12.1 µM; GI50 [50]: 2.43 µM; TGI [50]: 8.11 µM; GI50 [51]: 2.09 µM; TGI [51]: 4.31 µM; GI50 [52]: 2.28 µM; TGI [52]: 6.83 µM; GI50 [53]: 2.4 µM; TGI [53]: 7.11 µM; GI50 [54]: 3.95 µM; TGI [54]: > 100 µM; GI50 [55]: 1.8 µM; TGI [55]: 3.68 µM; GI50 [56]: 3.85 µM; TGI [56]: 30.5 µM; GI50 [57]: 1.81 µM; TGI [57]: 3.33 µM
